Measurements as given in US12162878B2 (HINOVA PHARMACEUTICALS INC., priority 2018, dated 2024).
Read-outs that look alike come from different tables or passages of the source.

Key:
Format in all cases: cell-based, human
[1] = system: BT474 cells; experiment: Inhibition of proliferation of BT474 cells (CCK-8); details: for IC50: Homo sapiens, BT-474, 144 h, 6 days, CCK-8
Method: (§1) • BT474 cell line (Cell Bank of Chinese Academy of Sciences, TCHu143) • FBS (Gibco, Cat. No. 10099-141) • 0.01M PBS (Biosharp, Cat. No. 162262) • RIPM1640 (Hyclone, Cat. No. 308090.01) • Penicillin-Streptomycin (Hyclone, Cat. No. SV30010) • Cell counting kit-8 (Signalway Antibody, Cat. No. CP002) • DMSO (Sigma, Cat. No. D5879) • Centrifuge Tube, 15 ml (Excell Bio, Cat. No. CS015-0001) • Cell Culture Dish (Excell Bio, Cat. No. CS016-0128) • 96-well cell culture cluster (Corning, Cat. No. 3599) 3. Experimental Method
1) BT474 cells were subcultured in cell culture media, and the cells in good growth condition were seeded in a 96-well plate, 80 μL for each well, thus the number of cells per well was 1500, then the plate was cultured overnight in a 37° C., 5% CO2 cell incubator.
(§2) 2) The drug was prepared with dimethyl sulfoxide (DMSO) as a 10 mM stock solution. Prior to use, the solution was diluted 3 times with DMSO, and then diluted with a 3-fold gradient to obtain 9 concentration gradients. Then, each concentration of the compound was further diluted 200 times with the culture media (to ensure that DMSO concentration in the culture system was 0.1%), 2 repeat wells for each concentration. The diluted solution of each compound (20 μL) was added to the cell culture well (with a final concentration of 10 μM, 3.3 μM, 1.1 and shaken gently for mixing. In addition, three negative control wells containing only cells and three blank control wells containing only culture medium (20 μL DMSO diluted 200 times with culture medium being added to six wells) were included.
(§3) (1) After culturing for 6 days, 10 μL CCK-8 was added to each well and cultured for additional 2.5 h in a 37° C., 5% CO2 cell incubator.
(§4) (2) The absorbance (OD value) at 450 nm was measured with a multifunctional microplate reader.
(§5) (3) The data was analyzed by the Dose-response-inhibition equation in the software GraphPad Prism6, and the IC50 value was obtained.

[2] = system: CWR22RV1 cells; experiment: Compound in combination with androgen receptor inhibitor HC-1119, proliferation of CWR22RV1 cells (CCK-8); details: for IC50: Homo sapiens, CWR22Rv1, 144 h, 6 days, read-out: IC50 for inhibition on the activity of CWR22RV1
Method: as §1, with “CWR22RV1” for “BT474”, “TCHu100)” for “TCHu143)”, “Dish,” for “Dish”, “3599)” for “3599) 3.”, “Method:” for “Method”
1) CWR22RV1 cells were subcultured in cell culture media, and the cells in good growth condition were seeded in a 96-well plate, 60 μL for each well, thus the number of cells per well was 2000, then the plate was cultured overnight in a 37° C., 5% CO2 cell incubator.
2) The drug was prepared with dimethyl sulfoxide (DMSO) as a 10 mM stock solution. Prior to use, the solution was diluted 3 times with DMSO, and then diluted with a 3-fold gradient to obtain 9 concentration gradients. Then, each concentration of the compound was further diluted 200 times with the culture media (to ensure that DMSO concentration in the culture system was 0.1%), 2 repeat wells for each concentration. The diluted solution of each compound (20 μL) was added to the cell culture well (with a final concentration of 10 μM, 3.3 μM, 1.1 μM . . . ); while the solution of HC-1119 was diluted with culture media to the concentrations of 50 μM and 15 μM, respectively, and the diluted solution of HC-1119 was added to the corresponding cell culture well (with a final concentration of 10 μM, 3 μM), then shaken gently for mixing. In addition, three negative control wells containing only cells and three blank control wells containing only culture media (20 μL DMSO diluted 200 times with culture media being added to six wells) were included.
as §3, §4, §5

[3] = system: Vcap cells; experiment: Inhibition of proliferation of Vcap cells (CCK-8); details: for IC50: Homo sapiens, 144 h, 6 days, CCK-8
Method: as §1, with “Vcap” for “BT474”, “TCHu220)” for “TCHu143)”, “DMEM HIGH Glucose” for “RIPM1640”, “SH30243.01)” for “308090.01)”, “Dish,” for “Dish”, “2.” for “3.”
1) Vcap cells were subcultured in cell culture media, and the cells in good growth condition were seeded in a 96-well plate, 80 μL for each well, thus the number of cells per well was 10000, then the plate was cultured overnight in a 37° C., 5% CO2 cell incubator.
as §2, with “1.1 μM . . . ),” for “1.1”
as §3, §4, §5

Row | IC50 [1] [nM] | IC50 [3] [nM] | SMILES | inhibitory action on Vcap cells (in words) [3] | further results
1 | 330 | – | [2H]C([2H])([2H])n1cc(-c2cc(NS(=O)(=O)CC)ccc2N2CCC3(CC2)CC3)c2cc[nH]c2c1=O [Compound 41] | – | –
2 | 130 | – | [2H]C([2H])([2H])n1cc(-c2cc(S(=O)(=O)CC)ccc2N2CCC3(CC3)C2)c2cc[nH]c2c1=O [Compound 55, 4-(5(ethylsulfonyl)-2-(5-aza-spiro[2.4]heptan-5-yl)phenyl)-6-trideuteromethyl-1H-pyrrolo[2,3-c]pyridin-7(6H)-one] | – | inhibitory action on BT474 cells (in words) [1]: effective inhibitory action
3 | – | 15 | [2H]C([2H])([2H])n1cc(-c2cc(S(C)(=O)=O)ccc2N2CCC3(CC2)CC3(F)F)c2cc[nH]c2c1=O [Compound 184, 4-(2-(1,1-difluoro-6-aza-spiro[2.5]octan-6-yl)-5-(methylsulfonyl)phenyl)-6-trideuteromethyl-1H-pyrrolo[2,3-c]pyridin-7(6H)-one] | effective inhibitory action | IC50 ([2]; compound alone, CWR22RV1 cells): 8.1 nM; IC50 ([2]; in combination with 3 μM HC-1119, CWR22RV1 cells): 2 nM; IC50 ([2]; in combination with 10 μM HC-1119, CWR22RV1 cells): 1.5 nM; effect of combination with HC-1119 on inhibitory action on CWR22RV1 cells (in words) ([2]; in combination with HC-1119, CWR22RV1 cells): improve the inhibitory action
4 | – | 17.6 | [2H]C([2H])([2H])n1cc(-c2cc(S(C)(=O)=O)c(F)cc2N2CCC3(CC2)CC3(F)F)c2cc[nH]c2c1=O [Compound 219, 4-(2-(1,1-difluoro-6-aza-spiro[2.5]octan-6-yl)-4-fluoro-5-(methylsulfonyl)phenyl)-6-trideuteromethyl-1H-pyrrolo[2,3-c]pyridin-7(6H)-one] | effective inhibitory action | –
